Test results published in ChEMBL document CHEMBL3779856, “Synthesis and antiproliferative activity of 6,7-disubstituted-4-phenoxyquinoline derivatives bearing the 2-oxo-4-chloro-1,2-dihydroquinoline-3-carboxamide moiety” (Bioorg Med Chem Lett, 2016).

Target: Hepatocyte growth factor receptor (Homo sapiens, UniProt P08581)
Sequence (P08581 whole entry): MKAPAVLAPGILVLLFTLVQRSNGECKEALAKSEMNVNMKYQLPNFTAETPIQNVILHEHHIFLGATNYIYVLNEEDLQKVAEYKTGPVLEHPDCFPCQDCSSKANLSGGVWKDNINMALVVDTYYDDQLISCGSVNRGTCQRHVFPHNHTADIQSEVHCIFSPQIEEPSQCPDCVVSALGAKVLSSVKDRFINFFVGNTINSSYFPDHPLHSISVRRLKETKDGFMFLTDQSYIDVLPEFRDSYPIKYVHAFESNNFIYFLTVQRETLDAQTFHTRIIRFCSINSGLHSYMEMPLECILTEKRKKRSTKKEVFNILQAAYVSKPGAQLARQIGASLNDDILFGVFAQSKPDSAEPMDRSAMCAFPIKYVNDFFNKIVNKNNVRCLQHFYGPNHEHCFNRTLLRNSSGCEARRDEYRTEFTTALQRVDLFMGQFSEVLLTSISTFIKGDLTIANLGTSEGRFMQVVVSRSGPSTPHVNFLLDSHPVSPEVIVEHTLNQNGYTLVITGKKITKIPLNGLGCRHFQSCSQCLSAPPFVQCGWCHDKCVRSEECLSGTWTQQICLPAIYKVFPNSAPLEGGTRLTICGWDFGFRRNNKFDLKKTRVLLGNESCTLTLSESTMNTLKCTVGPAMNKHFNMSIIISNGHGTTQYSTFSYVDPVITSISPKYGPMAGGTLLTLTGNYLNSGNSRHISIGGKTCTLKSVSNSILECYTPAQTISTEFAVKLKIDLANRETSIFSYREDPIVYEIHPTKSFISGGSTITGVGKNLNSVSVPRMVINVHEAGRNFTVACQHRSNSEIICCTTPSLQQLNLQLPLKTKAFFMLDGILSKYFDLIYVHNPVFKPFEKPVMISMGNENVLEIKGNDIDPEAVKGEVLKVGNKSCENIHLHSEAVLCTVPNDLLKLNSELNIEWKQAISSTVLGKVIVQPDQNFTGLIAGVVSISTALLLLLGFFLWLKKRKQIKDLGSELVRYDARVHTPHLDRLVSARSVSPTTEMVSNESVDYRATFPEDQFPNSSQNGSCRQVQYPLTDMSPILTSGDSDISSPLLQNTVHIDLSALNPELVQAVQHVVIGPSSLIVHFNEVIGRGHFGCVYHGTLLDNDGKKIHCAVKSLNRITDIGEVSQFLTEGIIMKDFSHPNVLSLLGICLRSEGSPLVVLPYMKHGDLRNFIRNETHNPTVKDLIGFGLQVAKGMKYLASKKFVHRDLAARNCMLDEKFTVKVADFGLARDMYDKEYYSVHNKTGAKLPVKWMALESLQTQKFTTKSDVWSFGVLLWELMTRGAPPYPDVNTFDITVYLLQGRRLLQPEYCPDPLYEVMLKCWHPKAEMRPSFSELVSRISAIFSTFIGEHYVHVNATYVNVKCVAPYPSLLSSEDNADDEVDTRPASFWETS
Assay: Inhibition of cMet (unknown origin) using poly (Glu, Tyr) 4:1 as substrate after 30 mins by HTRF assay
Settings: not given
With `COc1cc2c(Oc3ccc(NC(=O)c4c(Cl)c5ccccc5n(-c5ccc(F)cc5)c4=O)cc3F)ccnc2cc1OCCCN1CCCC1` the IC50 was 12.5 nM.
`COc1cc2c(Oc3ccc(NC(=O)c4c(Cl)c5ccccc5n(-c5ccccc5)c4=O)cc3F)ccnc2cc1OCCCN1CCCCC1` gave an IC50 of 18.4 nM.
In the case of `COc1cc2c(Oc3ccc(NC(=O)c4c(Cl)c5ccccc5n(-c5ccccc5)c4=O)cc3F)ccnc2cc1OCCCN1CCC(C)CC1`, the IC50 is reported as 6.84 nM.
`COc1cc2c(Oc3ccc(NC(=O)c4c(Cl)c5ccccc5n(-c5ccc(F)cc5)c4=O)cc3F)ccnc2cc1OCCCN1CCN(C)CC1` showed an IC50 of 1.21 nM.
In the case of `COc1cc2c(Oc3ccc(NC(=O)c4c(Cl)c5ccccc5n(-c5ccc(F)cc5)c4=O)cc3F)ccnc2cc1OCCCN1CCOCC1`, the IC50 is reported as 5.32 nM.

Test system: HT-29
Assay: cells
Settings: Homo sapiens, HT-29, 72 h
Description: Cytotoxicity against human HT-29 cells assessed as cell growth inhibition after 72 hrs by MTT assay
With `COc1cc2c(Oc3ccc(NC(=O)c4c(Cl)c5ccccc5n(-c5ccc(F)cc5)c4=O)cc3F)ccnc2cc1OCCCN1CCCC1` the IC50 was 150 nM.
With `COc1cc2c(Oc3ccc(NC(=O)c4c(Cl)c5ccccc5n(-c5ccccc5)c4=O)cc3F)ccnc2cc1OCCCN1CCCCC1` the IC50 was 41600 nM.
`COc1cc2c(Oc3ccc(NC(=O)c4c(Cl)c5ccccc5n(-c5ccccc5)c4=O)cc3F)ccnc2cc1OCCCN1CCC(C)CC1` gave an IC50 of 350 nM.
In the case of `COc1cc2c(Oc3ccc(NC(=O)c4c(Cl)c5ccccc5n(-c5ccc(F)cc5)c4=O)cc3F)ccnc2cc1OCCCN1CCN(C)CC1`, the IC50 is reported as 68 nM.
Work on `COc1cc2c(Oc3ccc(NC(=O)c4c(Cl)c5ccccc5n(-c5ccc(F)cc5)c4=O)cc3F)ccnc2cc1OCCCN1CCOCC1` yielded an IC50 of 140 nM.

Target: T1, Receptor-type tyrosine-protein kinase FLT3 (Homo sapiens, UniProt P36888)
T1 sequence (P36888 whole entry): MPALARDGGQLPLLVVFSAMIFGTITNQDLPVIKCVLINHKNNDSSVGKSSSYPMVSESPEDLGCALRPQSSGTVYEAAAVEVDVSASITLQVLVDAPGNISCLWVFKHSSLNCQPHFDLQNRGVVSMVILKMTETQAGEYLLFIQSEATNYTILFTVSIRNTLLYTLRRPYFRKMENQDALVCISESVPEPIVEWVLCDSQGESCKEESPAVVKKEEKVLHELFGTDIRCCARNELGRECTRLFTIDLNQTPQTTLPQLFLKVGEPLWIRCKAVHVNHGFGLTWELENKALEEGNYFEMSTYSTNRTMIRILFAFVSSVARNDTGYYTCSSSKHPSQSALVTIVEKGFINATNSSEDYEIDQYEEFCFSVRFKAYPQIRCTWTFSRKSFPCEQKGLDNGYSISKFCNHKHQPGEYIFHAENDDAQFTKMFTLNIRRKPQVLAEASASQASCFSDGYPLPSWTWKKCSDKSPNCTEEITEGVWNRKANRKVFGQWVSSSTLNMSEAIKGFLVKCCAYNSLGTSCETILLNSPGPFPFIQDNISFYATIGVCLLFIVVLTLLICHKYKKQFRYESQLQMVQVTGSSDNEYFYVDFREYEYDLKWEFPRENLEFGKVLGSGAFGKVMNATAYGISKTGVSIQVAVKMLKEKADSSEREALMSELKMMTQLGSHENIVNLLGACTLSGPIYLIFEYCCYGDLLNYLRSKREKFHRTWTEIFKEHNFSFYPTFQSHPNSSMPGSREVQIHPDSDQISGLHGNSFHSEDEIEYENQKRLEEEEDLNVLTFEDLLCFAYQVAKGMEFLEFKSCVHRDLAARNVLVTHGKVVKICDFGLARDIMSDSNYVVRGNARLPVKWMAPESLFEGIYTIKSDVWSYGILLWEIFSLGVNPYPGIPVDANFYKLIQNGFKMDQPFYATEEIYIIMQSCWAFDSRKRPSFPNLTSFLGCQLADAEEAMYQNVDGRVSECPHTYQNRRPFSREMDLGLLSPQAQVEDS
Assay: Inhibition of FLT3 (unknown origin) using poly (Glu, Tyr) 4:1 as substrate after 30 mins by HTRF assay
Settings: not given
Molecule `COc1cc2c(Oc3ccc(NC(=O)c4c(Cl)c5ccccc5n(-c5ccc(F)cc5)c4=O)cc3F)ccnc2cc1OCCCN1CCN(C)CC1` has an IC50 of 2.15 nM.

Target: Mast/stem cell growth factor receptor Kit (Homo sapiens, UniProt P10721)
Sequence (P10721 whole entry): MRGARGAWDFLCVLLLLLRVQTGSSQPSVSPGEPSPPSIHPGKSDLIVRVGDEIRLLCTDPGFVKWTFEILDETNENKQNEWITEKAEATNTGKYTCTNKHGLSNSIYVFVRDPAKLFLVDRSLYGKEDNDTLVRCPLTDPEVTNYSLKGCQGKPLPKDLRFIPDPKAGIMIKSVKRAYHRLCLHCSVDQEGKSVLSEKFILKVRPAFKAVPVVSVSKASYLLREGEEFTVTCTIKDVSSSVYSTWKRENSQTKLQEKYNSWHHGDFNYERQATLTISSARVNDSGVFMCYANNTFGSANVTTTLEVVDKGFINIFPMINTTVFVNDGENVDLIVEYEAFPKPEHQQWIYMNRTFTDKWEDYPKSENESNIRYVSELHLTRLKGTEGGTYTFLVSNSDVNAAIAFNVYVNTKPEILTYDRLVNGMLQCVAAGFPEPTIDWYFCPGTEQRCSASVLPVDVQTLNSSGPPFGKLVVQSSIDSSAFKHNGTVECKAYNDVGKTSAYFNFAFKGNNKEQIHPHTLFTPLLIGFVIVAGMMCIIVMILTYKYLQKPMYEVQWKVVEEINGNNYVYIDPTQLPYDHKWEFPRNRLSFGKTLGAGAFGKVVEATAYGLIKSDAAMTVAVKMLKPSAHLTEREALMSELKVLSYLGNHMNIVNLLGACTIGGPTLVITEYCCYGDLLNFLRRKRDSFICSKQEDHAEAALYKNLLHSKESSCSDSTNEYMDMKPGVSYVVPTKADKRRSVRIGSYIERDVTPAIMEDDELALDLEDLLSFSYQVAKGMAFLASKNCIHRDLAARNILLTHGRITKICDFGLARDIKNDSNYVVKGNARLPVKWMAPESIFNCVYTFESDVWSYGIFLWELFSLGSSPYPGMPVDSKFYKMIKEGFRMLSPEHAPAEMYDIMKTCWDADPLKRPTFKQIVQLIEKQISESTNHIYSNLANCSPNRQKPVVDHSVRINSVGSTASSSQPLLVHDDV
Assay: Inhibition of cKIT (unknown origin) using poly (Glu, Tyr) 4:1 as substrate after 30 mins by HTRF assay
Settings: not given
In the case of `COc1cc2c(Oc3ccc(NC(=O)c4c(Cl)c5ccccc5n(-c5ccc(F)cc5)c4=O)cc3F)ccnc2cc1OCCCN1CCN(C)CC1`, the IC50 is reported as 363 nM.

Target: Epidermal growth factor receptor (Homo sapiens, UniProt P00533)
Assay: Inhibition of EGFR (unknown origin) using poly (Glu, Tyr) 4:1 as substrate after 30 mins by HTRF assay
Settings: not given
Work on `COc1cc2c(Oc3ccc(NC(=O)c4c(Cl)c5ccccc5n(-c5ccc(F)cc5)c4=O)cc3F)ccnc2cc1OCCCN1CCN(C)CC1` yielded an IC50 greater than 100000 nM.

Test system: not listed separately
Assay: Potency index, ratio of foretinib IC50 to compound IC50 for human H460 cells
Format: functional
Settings: not given
With `COc1cc2c(Oc3ccc(NC(=O)c4c(Cl)c5ccccc5n(-c5ccc(F)cc5)c4=O)cc3F)ccnc2cc1OCCCN1CCN(C)CC1` the “Ratio IC50” value was 6.1.

Test system: not listed separately
Assay: cells
Settings: Homo sapiens, NCI-H460, 72 h
Description: Cytotoxicity against human H460 cells assessed as cell growth inhibition after 72 hrs by MTT assay
`COc1cc2c(Oc3ccc(NC(=O)c4c(Cl)c5ccccc5n(-c5ccc(F)cc5)c4=O)cc3F)ccnc2cc1OCCCN1CCCC1` showed an IC50 of 120 nM.
With `COc1cc2c(Oc3ccc(NC(=O)c4c(Cl)c5ccccc5n(-c5ccccc5)c4=O)cc3F)ccnc2cc1OCCCN1CCCCC1` the IC50 was 140 nM.
Work on `COc1cc2c(Oc3ccc(NC(=O)c4c(Cl)c5ccccc5n(-c5ccccc5)c4=O)cc3F)ccnc2cc1OCCCN1CCC(C)CC1` yielded an IC50 of 150 nM.
`COc1cc2c(Oc3ccc(NC(=O)c4c(Cl)c5ccccc5n(-c5ccc(F)cc5)c4=O)cc3F)ccnc2cc1OCCCN1CCN(C)CC1` gave an IC50 of 31 nM.
Molecule `COc1cc2c(Oc3ccc(NC(=O)c4c(Cl)c5ccccc5n(-c5ccc(F)cc5)c4=O)cc3F)ccnc2cc1OCCCN1CCOCC1` has an IC50 of 61 nM.

Target: Platelet-derived growth factor receptor beta (Homo sapiens, UniProt P09619)
Sequence (P09619 whole entry): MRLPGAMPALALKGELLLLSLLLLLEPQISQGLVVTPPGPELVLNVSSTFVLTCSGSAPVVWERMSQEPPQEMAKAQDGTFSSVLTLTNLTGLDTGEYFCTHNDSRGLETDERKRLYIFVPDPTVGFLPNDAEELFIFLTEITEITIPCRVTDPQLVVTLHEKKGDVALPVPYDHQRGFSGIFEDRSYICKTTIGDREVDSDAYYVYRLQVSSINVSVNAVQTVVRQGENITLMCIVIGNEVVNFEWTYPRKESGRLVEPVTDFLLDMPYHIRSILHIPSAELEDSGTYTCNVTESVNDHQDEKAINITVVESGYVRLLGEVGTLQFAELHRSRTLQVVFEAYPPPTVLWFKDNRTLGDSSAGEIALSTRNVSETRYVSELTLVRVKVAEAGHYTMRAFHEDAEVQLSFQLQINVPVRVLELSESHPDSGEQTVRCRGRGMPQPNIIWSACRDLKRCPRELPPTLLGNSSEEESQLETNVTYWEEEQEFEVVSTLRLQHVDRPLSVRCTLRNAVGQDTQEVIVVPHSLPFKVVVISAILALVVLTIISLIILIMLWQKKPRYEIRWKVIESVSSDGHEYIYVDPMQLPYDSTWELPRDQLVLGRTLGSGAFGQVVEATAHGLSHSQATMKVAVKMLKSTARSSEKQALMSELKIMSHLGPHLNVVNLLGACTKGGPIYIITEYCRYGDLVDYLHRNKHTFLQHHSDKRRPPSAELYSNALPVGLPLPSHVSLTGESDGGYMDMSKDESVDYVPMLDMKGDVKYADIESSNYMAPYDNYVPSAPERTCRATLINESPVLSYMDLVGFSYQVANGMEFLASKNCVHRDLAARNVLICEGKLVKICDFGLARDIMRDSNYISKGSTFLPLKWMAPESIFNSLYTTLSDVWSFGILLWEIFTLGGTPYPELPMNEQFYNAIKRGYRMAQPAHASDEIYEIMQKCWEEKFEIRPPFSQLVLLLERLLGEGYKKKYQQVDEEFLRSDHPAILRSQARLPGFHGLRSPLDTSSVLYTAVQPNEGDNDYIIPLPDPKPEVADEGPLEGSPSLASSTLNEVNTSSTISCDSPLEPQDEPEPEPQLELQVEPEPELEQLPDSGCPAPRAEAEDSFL
Assay: Inhibition of PDGFRbeta (unknown origin) using poly (Glu, Tyr) 4:1 as substrate after 30 mins by HTRF assay
Settings: not given
Work on `COc1cc2c(Oc3ccc(NC(=O)c4c(Cl)c5ccccc5n(-c5ccc(F)cc5)c4=O)cc3F)ccnc2cc1OCCCN1CCN(C)CC1` yielded an IC50 of 526 nM.

Test system: not listed separately
Assay: cells
Settings: Homo sapiens, MKN-45, 72 h
Description: Cytotoxicity against human MKN45 cells assessed as cell growth inhibition after 72 hrs by MTT assay
For `COc1cc2c(Oc3ccc(NC(=O)c4c(Cl)c5ccccc5n(-c5ccc(F)cc5)c4=O)cc3F)ccnc2cc1OCCCN1CCCC1`, the IC50 was 570 nM.
Work on `COc1cc2c(Oc3ccc(NC(=O)c4c(Cl)c5ccccc5n(-c5ccccc5)c4=O)cc3F)ccnc2cc1OCCCN1CCCCC1` yielded an IC50 of 280 nM.
With `COc1cc2c(Oc3ccc(NC(=O)c4c(Cl)c5ccccc5n(-c5ccccc5)c4=O)cc3F)ccnc2cc1OCCCN1CCC(C)CC1` the IC50 was 460 nM.
Work on `COc1cc2c(Oc3ccc(NC(=O)c4c(Cl)c5ccccc5n(-c5ccc(F)cc5)c4=O)cc3F)ccnc2cc1OCCCN1CCN(C)CC1` yielded an IC50 of 160 nM.
Work on `COc1cc2c(Oc3ccc(NC(=O)c4c(Cl)c5ccccc5n(-c5ccc(F)cc5)c4=O)cc3F)ccnc2cc1OCCCN1CCOCC1` yielded an IC50 of 210 nM.

Target: Vascular endothelial growth factor receptor 2 (Homo sapiens, UniProt P35968)
Sequence (P35968 whole entry): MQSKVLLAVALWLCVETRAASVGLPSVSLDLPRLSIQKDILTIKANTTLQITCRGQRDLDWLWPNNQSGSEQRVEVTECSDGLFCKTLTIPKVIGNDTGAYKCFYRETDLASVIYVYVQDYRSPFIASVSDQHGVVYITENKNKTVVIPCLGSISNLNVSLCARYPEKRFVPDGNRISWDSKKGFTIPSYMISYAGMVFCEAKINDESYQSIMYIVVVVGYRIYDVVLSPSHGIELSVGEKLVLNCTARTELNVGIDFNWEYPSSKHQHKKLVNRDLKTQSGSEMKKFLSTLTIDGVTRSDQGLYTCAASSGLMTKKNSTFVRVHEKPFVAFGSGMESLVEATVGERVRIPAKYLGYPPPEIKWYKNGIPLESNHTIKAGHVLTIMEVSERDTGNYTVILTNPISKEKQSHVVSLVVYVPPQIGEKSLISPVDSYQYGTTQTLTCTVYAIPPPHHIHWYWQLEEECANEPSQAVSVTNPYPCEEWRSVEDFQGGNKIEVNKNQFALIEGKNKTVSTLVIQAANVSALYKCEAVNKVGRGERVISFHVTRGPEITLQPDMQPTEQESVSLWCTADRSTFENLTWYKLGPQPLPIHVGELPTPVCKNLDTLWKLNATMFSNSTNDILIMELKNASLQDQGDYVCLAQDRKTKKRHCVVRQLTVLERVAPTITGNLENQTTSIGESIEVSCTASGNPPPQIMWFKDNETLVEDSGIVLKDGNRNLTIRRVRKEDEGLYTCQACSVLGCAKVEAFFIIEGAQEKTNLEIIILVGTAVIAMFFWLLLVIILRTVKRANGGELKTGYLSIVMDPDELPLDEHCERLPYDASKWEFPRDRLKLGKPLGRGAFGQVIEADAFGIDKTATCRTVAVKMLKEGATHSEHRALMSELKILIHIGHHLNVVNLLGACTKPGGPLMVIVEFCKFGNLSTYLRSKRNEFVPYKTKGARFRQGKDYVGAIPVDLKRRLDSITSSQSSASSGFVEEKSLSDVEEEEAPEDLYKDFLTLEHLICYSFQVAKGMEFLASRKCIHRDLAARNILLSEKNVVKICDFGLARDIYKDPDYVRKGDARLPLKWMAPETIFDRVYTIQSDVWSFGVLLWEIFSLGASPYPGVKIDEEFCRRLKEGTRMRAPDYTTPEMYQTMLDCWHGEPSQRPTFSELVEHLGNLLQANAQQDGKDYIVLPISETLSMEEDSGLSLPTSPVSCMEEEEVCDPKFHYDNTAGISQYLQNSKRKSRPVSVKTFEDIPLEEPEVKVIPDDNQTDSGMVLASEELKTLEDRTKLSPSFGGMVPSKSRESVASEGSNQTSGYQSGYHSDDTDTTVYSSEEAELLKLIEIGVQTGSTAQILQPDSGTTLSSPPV
Assay: Inhibition of VEGFR-2 (unknown origin) using poly (Glu, Tyr) 4:1 as substrate after 30 mins by HTRF assay
Settings: not given
In the case of `COc1cc2c(Oc3ccc(NC(=O)c4c(Cl)c5ccccc5n(-c5ccc(F)cc5)c4=O)cc3F)ccnc2cc1OCCCN1CCN(C)CC1`, the IC50 is reported as 543 nM.

Test system: HT-29
Assay: Potency index, ratio of foretinib IC50 to compound IC50 for human HT-29 cells
Format: functional
Settings: not given
In the case of `COc1cc2c(Oc3ccc(NC(=O)c4c(Cl)c5ccccc5n(-c5ccc(F)cc5)c4=O)cc3F)ccnc2cc1OCCCN1CCN(C)CC1`, the “Ratio IC50” value is reported as 2.4.

Test system: not listed separately
Assay: Cytotoxicity against human U87MG cells assessed as cell growth inhibition after 72 hrs by MTT assay
Format: functional, cell-based, U-87MG ATCC
Settings: U-87 MG
Work on `COc1cc2c(Oc3ccc(NC(=O)c4c(Cl)c5ccccc5n(-c5ccc(F)cc5)c4=O)cc3F)ccnc2cc1OCCCN1CCCC1` yielded an IC50 of 640 nM.
`COc1cc2c(Oc3ccc(NC(=O)c4c(Cl)c5ccccc5n(-c5ccccc5)c4=O)cc3F)ccnc2cc1OCCCN1CCCCC1` showed an IC50 of 1300 nM.
Molecule `COc1cc2c(Oc3ccc(NC(=O)c4c(Cl)c5ccccc5n(-c5ccccc5)c4=O)cc3F)ccnc2cc1OCCCN1CCC(C)CC1` has an IC50 of 1420 nM.
With `COc1cc2c(Oc3ccc(NC(=O)c4c(Cl)c5ccccc5n(-c5ccc(F)cc5)c4=O)cc3F)ccnc2cc1OCCCN1CCN(C)CC1` the IC50 was 520 nM.
With `COc1cc2c(Oc3ccc(NC(=O)c4c(Cl)c5ccccc5n(-c5ccc(F)cc5)c4=O)cc3F)ccnc2cc1OCCCN1CCOCC1` the IC50 was 8500 nM.

Test system: U-87 MG
Assay: Potency index, ratio of foretinib IC50 to compound IC50 for human U87MG cells
Format: functional, U-87MG ATCC
Settings: not given
With `COc1cc2c(Oc3ccc(NC(=O)c4c(Cl)c5ccccc5n(-c5ccc(F)cc5)c4=O)cc3F)ccnc2cc1OCCCN1CCN(C)CC1` the “Ratio IC50” value was 2.1.

Test system: A549
Assay: Cytotoxicity against human A549 cells assessed as cell growth inhibition after 72 hrs by MTT assay
Format: functional, cell-based
Settings: A549, 72 h
`COc1cc2c(Oc3ccc(NC(=O)c4c(Cl)c5ccccc5n(-c5ccc(F)cc5)c4=O)cc3F)ccnc2cc1OCCCN1CCCC1` showed an IC50 of 720 nM.
In the case of `COc1cc2c(Oc3ccc(NC(=O)c4c(Cl)c5ccccc5n(-c5ccccc5)c4=O)cc3F)ccnc2cc1OCCCN1CCCCC1`, the IC50 is reported as 510 nM.
With `COc1cc2c(Oc3ccc(NC(=O)c4c(Cl)c5ccccc5n(-c5ccccc5)c4=O)cc3F)ccnc2cc1OCCCN1CCC(C)CC1` the IC50 was 390 nM.
`COc1cc2c(Oc3ccc(NC(=O)c4c(Cl)c5ccccc5n(-c5ccc(F)cc5)c4=O)cc3F)ccnc2cc1OCCCN1CCN(C)CC1` gave an IC50 of 110 nM.
For `COc1cc2c(Oc3ccc(NC(=O)c4c(Cl)c5ccccc5n(-c5ccc(F)cc5)c4=O)cc3F)ccnc2cc1OCCCN1CCOCC1`, the IC50 was 110 nM.
